Results published in patent US20050239656A1, “Pyridine compounds or salts thereof and herbicides containing the same” (priority 2002, published 2005).

Legend:
[1] = tested on: barnyardgrass; experiment: Test Example 1: foliage treatment, upland pot test; assay type: in vivo, Echinochloa crus-galli L.; details: active ingredient 1000 g/ha, observed 18th to 23rd day, 0 = non-treated, 100 = complete kill
Method in brief: (§1)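 Each plant species was sprayed once on its foliage, with wheat at 1.3–2.4, soybean at 0.1–0.4, barnyardgrass at 1.3–2.8 and rice at 1.2–2.6 leaves. Visual ratings of growth inhibition, 0 to 100%, followed 18–23 days later.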

[2] = tested on: velvetleaf; experiment: Test Example 2: soil surface treatment, upland pot test; assay type: in vivo, Abutilon theophrasti MEDIC.; details: active ingredient 1000 g/ha, observed 20th to 28th day
Method in brief: (§2)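 In this pre-emergence upland pot test, a small sprayer delivered the diluted compound formulation (1,500 L/ha water) to the soil surface the day after seeding. Plants were then observed, and control was scored from 0 to 100% some 20–28 days after treatment.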

[3] = tested on: soybean; experiment: as above; assay type: in vivo, Glycine max Merr.; details: active ingredient 1000 g/ha, observed 20th to 28th day
Method in brief: as §2

[4] = tested on: redroot pigweed; experiment: as above; assay type: in vivo, Amaranthus retroflexus L.; details: active ingredient 1000 g/ha, observed 20th to 28th day
Method in brief: as §2

[5] = tested on: soybean; experiment: Test Example 1: foliage treatment, upland pot test; assay type: in vivo, Glycine max Merr.; details: crop, active ingredient 1000 g/ha, observed 18th to 23rd day, 0 = non-treated, 100 = complete kill
Method in brief: as §1

[6] = tested on: tall morningglory; experiment: Test Example 1: foliage treatment, upland pot test; assay type: in vivo, Ipomoea purpurea L.; details: active ingredient 1000 g/ha, observed 18th to 23rd day, 0 = non-treated, 100 = complete kill
Description: Upland field soil was put into a 1/170,000 ha pot, and seed of various plants were sown. Then, when the plants reached predetermined leaf stages ((1) barnyardgrass: 1.3 to 2.8 leaf stages, (2) crabgrass: 1.0 to 2.8 leaf stages, (3) green foxtail: 1.3 to 2.6 leaf stages, (4) redroot pigweed: 0.1 to 1.2 leaf stages, (5) prickly sida: 0.1 to 1.2 leaf stages, (6) velvetleaf: 0.1 to 1.2 leaf stages, (7) tall morningglory: 0.1 to 1.5 leaf stages, (8) rice: 1.2 to 2.6 leaf stages, (9) wheat: 1.3 to 2.4 leaf stages, (10) corn, 2.1 to 3.2 leaf stages, (11) soybean: 0.1 to 0.4 leaf stage), a wettable powder or emulsifiable concentrate having the compound of the present invention formulated in accordance with a usual formulation method, was weighed so that the active ingredient would be a predetermined amount, and diluted with water in an amount of 500 L/ha. To the diluted solution, 0.1% (v/v) of agricultural spreader was added. The herbicide thus adjusted was applied by a small size sprayer for foliage treatment. On the 18th to 23rd days after the application of the herbicide, the growth of the respective plants was visually observed, and the herbicidal effects were evaluated by the growth controlling degrees (%) ranging from 0 (equivalent to the non-treated plot) to 100 (complete kill), whereby the results shown in Table 3, were obtained.

[7] = tested on: barnyardgrass; experiment: Test Example 2: soil surface treatment, upland pot test; assay type: in vivo, Echinochloa crus-galli L.; details: active ingredient 1000 g/ha, observed 20th to 28th day, 0 = non-treated, 100 = complete kill
Method in brief: as §2

[8] = tested on: velvetleaf; experiment: Test Example 1: foliage treatment, upland pot test; assay type: in vivo, Abutilon theophrasti MEDIC.; details: active ingredient 1000 g/ha, observed 18th to 23rd day, 0 = non-treated, 100 = complete kill
[9] = tested on: wheat; experiment: Test Example 2: soil surface treatment, upland pot test; assay type: in vivo, Triticum spp.; details: active ingredient 1000 g/ha, observed 20th to 28th day
Method in brief: as §2

[10] = tested on: rice (var. Nihonbare); experiment: Test Example 3: paddy pot test, transplanted rice; assay type: in vivo, Oryza sativa L.; details: active ingredient 250 g/ha, applied 4th day after transplantation, visually observed 21st day after application, 0 = non-treated, 100 = complete kill
Method in brief: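 Rice (2-leaf stage) was transplanted 3 cm deep into puddled, leveled paddy soil under 3–4 cm flooding. On day 4 after transplanting, diluted wettable powder or emulsifiable concentrate was pipetted onto the water at a predetermined active-ingredient dose. Growth control (0 = untreated, 100 = complete kill) was scored visually 21 days later.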

[11] = tested on: wheat; experiment: Test Example 1: foliage treatment, upland pot test; assay type: in vivo, Triticum spp.; details: crop, active ingredient 1000 g/ha, observed 18th to 23rd day, 0 = non-treated, 100 = complete kill
Method in brief: as §1

[12] = tested on: corn; experiment: Test Example 2: soil surface treatment, upland pot test; assay type: in vivo, Zea mays L.; details: active ingredient 1000 g/ha, observed 20th to 28th day
Method in brief: as §2

[13] = tested on: green foxtail; experiment: Test Example 1: foliage treatment, upland pot test; assay type: in vivo, Setaria viridis L.; details: active ingredient 1000 g/ha, observed 18th to 23rd day, 0 = non-treated, 100 = complete kill
[14] = tested on: rice; experiment: Test Example 2: soil surface treatment, upland pot test; assay type: in vivo, Oryza sativa L.; details: active ingredient 1000 g/ha, observed 20th to 28th day
Method in brief: as §2

[15] = tested on: crabgrass; experiment: as above; assay type: in vivo, Digitaria sanguinalis L.; details: active ingredient 1000 g/ha, observed 20th to 28th day
Method in brief: as §2

[16] = tested on: prickly sida; experiment: as above; assay type: in vivo, Sida spinosa L.; details: active ingredient 1000 g/ha, observed 20th to 28th day
Method in brief: as §2

[17] = tested on: crabgrass; experiment: Test Example 1: foliage treatment, upland pot test; assay type: in vivo, Digitaria sanguinalis L.; details: active ingredient 1000 g/ha, observed 18th to 23rd day, 0 = non-treated, 100 = complete kill
[18] = tested on: green foxtail; experiment: Test Example 2: soil surface treatment, upland pot test; assay type: in vivo, Setaria viridis L.; details: active ingredient 1000 g/ha, observed 20th to 28th day
Method in brief: as §2

[19] = tested on: corn; experiment: Test Example 1: foliage treatment, upland pot test; assay type: in vivo, Zea mays L.; details: crop, active ingredient 1000 g/ha, observed 18th to 23rd day, 0 = non-treated, 100 = complete kill
Method in brief: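 Corn seeds were sown in upland field soil held in a 1/170,000 ha pot and grown to the 2.1 to 3.2 leaf stage. A wettable powder or emulsifiable concentrate of the test compound was diluted with water at 500 L/ha, given 0.1% (v/v) agricultural spreader, and sprayed onto the foliage with a small sprayer. Growth controlling degree (%) was scored visually 18th to 23rd days later, from 0 (non-treated) to 100 (complete kill).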

[20] = tested on: barnyardgrass; experiment: Test Example 3: paddy pot test, application under submerged conditions; assay type: in vivo, Echinochloa crus-galli L.; details: active ingredient 250 g/ha; submerged application at 0.5 leaf stage; visually observed 14 days after application; 0 = non-treated, 100 = complete kill
Method in brief: (§3)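 Seeds were sown in flooded paddy soil (0.5–1 cm water), wapato tubers were planted 1–2 days later, and water was then held at 3–4 cm. Diluted wettable powder or emulsifiable concentrate was pipetted into the water at the 0.5 leaf or primary leaf stage. Growth control was visually scored at 14 days (0–100%).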

[21] = tested on: japanese ribbon wapato; experiment: as above; assay type: in vivo, Sagittaria pygniaea; details: active ingredient 250 g/ha; submerged application at primary leaf stage; visually observed 14 days after application; 0 = non-treated, 100 = complete kill
Method in brief: as §3

[22] = tested on: prickly sida; experiment: Test Example 1: foliage treatment, upland pot test; assay type: in vivo, Sida spinosa L.; details: active ingredient 1000 g/ha, observed 18th to 23rd day, 0 = non-treated, 100 = complete kill
[23] = tested on: rice; experiment: Test Example 1: foliage treatment, upland pot test; assay type: in vivo, Oryza sativa L.; details: crop, active ingredient 1000 g/ha, observed 18th to 23rd day, 0 = non-treated, 100 = complete kill
Method in brief: as §1

[24] = tested on: redroot pigweed; experiment: Test Example 1: foliage treatment, upland pot test; assay type: in vivo, Amaranthus retroflexus L.; details: active ingredient 1000 g/ha, observed 18th to 23rd day, 0 = non-treated, 100 = complete kill
[25] = tested on: japanese bulrush; experiment: Test Example 3: paddy pot test, application under submerged conditions; assay type: in vivo, Scirpus juncoides; details: active ingredient 250 g/ha; submerged application at 0.5 leaf stage; visually observed 14 days after application; 0 = non-treated, 100 = complete kill
Method in brief: as §3

Q: How did the “Growth controlling degree (%) Barnyardgrass” value [1] turn out when `CC(C)C(c1cnccc1C(F)(F)F)N(C)C(=O)Cc1ccc(I)cc1` (stereo not shown) [I-2] was run?
A: Its value is 90%.

Q: What about the “Growth controlling degree (%) Velvetleaf” value [2] of the same compound?
A: The value was 0%.

Q: What about the “Growth controlling degree (%) Soyabean” value [3] of the same compound?
A: The value was 0%.

Q: And the “Growth controlling degree (%) Redroot pigweed” value [4]?
A: The value was 70%.

Q: What about the “Growth controlling degree (%) Soybean” value [5] of the same compound?
A: Its value is 90%.

Q: And the “Growth controlling degree (%) Tall morningglory” value [6]?
A: The value was 90%.

Q: What about the “Growth controlling degree (%) Barnyardgrass” value [7] of the same compound?
A: Its value is 80%.

Q: What about the “Growth controlling degree (%) Velvetleaf” value [8] of the same compound?
A: Its value is 90%.

Q: What about the “Growth controlling degree (%) wheat” value [9] of the same compound?
A: Its value is 0%.

Q: What about the “Growth controlling degree (%) Rice” value [10] of the same compound?
A: The value was 20%.

Q: What about the “Growth controlling degree (%) wheat” value [11] of the same compound?
A: Its value is 20%.

Q: And the “Growth controlling degree (%) Corn” value [12]?
A: Its value is 0%.

Q: What about the “Growth controlling degree (%) Green foxtail” value [13] of the same compound?
A: Its value is 70%.

Q: And the “Growth controlling degree (%) Rice” value [14]?
A: Its value is 0%.

Q: What about the “Growth controlling degree (%) Crabgrass” value [15] of the same compound?
A: Its value is 90%.

Q: What about the “Growth controlling degree (%) Prickly sida” value [16] of the same compound?
A: Its value is 70%.

Q: And the “Growth controlling degree (%) Crabgrass” value [17]?
A: Its value is 90%.

Q: And the “Growth controlling degree (%) Green foxtail” value [18]?
A: The value was 80%.

Q: And the “Growth controlling degree (%) Corn” value [19]?
A: The value was 20%.

Q: And the “Growth controlling degree (%) Barnyardgrass” value [20]?
A: Its value is 100%.

Q: What about the “Growth controlling degree (%) Japanese ribbon wapato” value [21] of the same compound?
A: The value was 50%.

Q: What about the “Growth controlling degree (%) Prickly sida” value [22] of the same compound?
A: Its value is 90%.

Q: What about the “Growth controlling degree (%) Rice” value [23] of the same compound?
A: The value was 20%.

Q: And the “Growth controlling degree (%) Redroot pigweed” value [24]?
A: The value was 70%.

Q: And the “Growth controlling degree (%) Japanese bulrush” value [25]?
A: Its value is 90%.
